# “And” between values parts separate entries of the source, which are not always exact repeats. Equal values may be shown once.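 Step 1: Grow cells in 96-well plates. Step 2: Expose to compound for 48 hours at 5 concentrations. Step 3: Interpolate endpoints linearly; if unreached, use highest concentration. At the GI50, growth is halved. Definition used: TGI = concentration required for complete inhibition of growth.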
# System: SNB-75 CNS
# Assay: NCI-60 cell line screen, 48 h
row,SMILES,TGI
1,COc1ccc2nc3cc(Cl)ccc3c(NCCCN3CCN(CCCNc4ccc5nnn6c7ccccc7c(=O)c4c56)CC3)c2c1,> 25 µM
2,Cn1c(=O)c2c(nc(N/N=C/c3ccccc3C(=O)O)n2C)n(C)c1=O,> 100 µM

# System: HOP-62 NSCLC
# Assay: NCI-60 cell line screen, 48 h
SMILES,GI50,TGI
CC(=O)OCC1OC(n2c3c(cc(C#N)c2=S)CCCC3)C(OC(C)=O)C(OC(C)=O)C1OC(C)=O (configuration not stated),83.3 µM and 19.9 µM,> 100 µM and 51.5 µM
N#[N+]c1ccc(Nc2ccccc2)cc1,> 50 µg/mL,> 50 µg/mL
COC(=O)c1c(O)ccc2c1c1cc3ccccc3c(O)c1n2CCc1ccc(OC)c(OC)c1,–,> 100 µM
Nc1ccccc1C(=O)N=Nc1c(O)[nH]c2ccccc12,–,> 100 µM
COc1ccc2nc3cc(Cl)ccc3c(NCCCN3CCN(CCCNc4ccc5nnn6c7ccccc7c(=O)c4c56)CC3)c2c1,–,> 25 µM
Cn1c(=O)c2c(nc(N/N=C/c3ccccc3C(=O)O)n2C)n(C)c1=O,–,> 100 µM

# System: SK-MEL-2 melanoma
# Assay: NCI-60 cell line screen, 48 h
SMILES,GI50,TGI
CC(=O)OCC1OC(n2c3c(cc(C#N)c2=S)CCCC3)C(OC(C)=O)C(OC(C)=O)C1OC(C)=O (configuration not stated),> 100 µM and 27 µM,> 100 µM
N#[N+]c1ccc(Nc2ccccc2)cc1,> 50 µg/mL,> 50 µg/mL
COC(=O)c1c(O)ccc2c1c1cc3ccccc3c(O)c1n2CCc1ccc(OC)c(OC)c1,–,> 100 µM
Nc1ccccc1C(=O)N=Nc1c(O)[nH]c2ccccc12,–,> 100 µM
COc1ccc2nc3cc(Cl)ccc3c(NCCCN3CCN(CCCNc4ccc5nnn6c7ccccc7c(=O)c4c56)CC3)c2c1,–,> 25 µM
Cn1c(=O)c2c(nc(N/N=C/c3ccccc3C(=O)O)n2C)n(C)c1=O,–,> 100 µM

# System: MCF7 breast
# Assay: NCI-60 cell line screen, 48 h
SMILES,GI50,TGI
CC(=O)OCC1OC(n2c3c(cc(C#N)c2=S)CCCC3)C(OC(C)=O)C(OC(C)=O)C1OC(C)=O (configuration not stated),48.4 µM and > 100 µM,> 100 µM
N#[N+]c1ccc(Nc2ccccc2)cc1,> 50 µg/mL,> 50 µg/mL
COC(=O)c1c(O)ccc2c1c1cc3ccccc3c(O)c1n2CCc1ccc(OC)c(OC)c1,–,> 100 µM
Nc1ccccc1C(=O)N=Nc1c(O)[nH]c2ccccc12,–,> 100 µM
COc1ccc2nc3cc(Cl)ccc3c(NCCCN3CCN(CCCNc4ccc5nnn6c7ccccc7c(=O)c4c56)CC3)c2c1,–,7.11 µM
Cn1c(=O)c2c(nc(N/N=C/c3ccccc3C(=O)O)n2C)n(C)c1=O,–,> 100 µM

# System: 786-0 renal
# Assay: NCI-60 cell line screen, 48 h
SMILES,GI50,TGI
CC(=O)OCC1OC(n2c3c(cc(C#N)c2=S)CCCC3)C(OC(C)=O)C(OC(C)=O)C1OC(C)=O (configuration not stated),> 100 µM and 26.9 µM,> 100 µM
N#[N+]c1ccc(Nc2ccccc2)cc1,> 50 µg/mL,> 50 µg/mL
COC(=O)c1c(O)ccc2c1c1cc3ccccc3c(O)c1n2CCc1ccc(OC)c(OC)c1,–,> 100 µM
Nc1ccccc1C(=O)N=Nc1c(O)[nH]c2ccccc12,–,> 100 µM
COc1ccc2nc3cc(Cl)ccc3c(NCCCN3CCN(CCCNc4ccc5nnn6c7ccccc7c(=O)c4c56)CC3)c2c1,–,> 25 µM
Cn1c(=O)c2c(nc(N/N=C/c3ccccc3C(=O)O)n2C)n(C)c1=O,–,> 100 µM

# System: MDA-MB-435
# Assay: NCI-60 cell line screen, 48 h
SMILES,TGI,GI50
CC(=O)OCC1OC(n2c3c(cc(C#N)c2=S)CCCC3)C(OC(C)=O)C(OC(C)=O)C1OC(C)=O (configuration not stated),> 100 µM,–
N#[N+]c1ccc(Nc2ccccc2)cc1,17.7 µg/mL,1.83 µg/mL
COC(=O)c1c(O)ccc2c1c1cc3ccccc3c(O)c1n2CCc1ccc(OC)c(OC)c1,> 100 µM,–
Nc1ccccc1C(=O)N=Nc1c(O)[nH]c2ccccc12,> 100 µM,–
COc1ccc2nc3cc(Cl)ccc3c(NCCCN3CCN(CCCNc4ccc5nnn6c7ccccc7c(=O)c4c56)CC3)c2c1,> 25 µM,–
Cn1c(=O)c2c(nc(N/N=C/c3ccccc3C(=O)O)n2C)n(C)c1=O,> 100 µM,–

# System: PC-3 prostate
# Assay: NCI-60 cell line screen, 48 h
SMILES,GI50,TGI
CC(=O)OCC1OC(n2c3c(cc(C#N)c2=S)CCCC3)C(OC(C)=O)C(OC(C)=O)C1OC(C)=O (configuration not stated),36.6 µM and > 100 µM,> 100 µM
N#[N+]c1ccc(Nc2ccccc2)cc1,> 50 µg/mL,> 50 µg/mL
COC(=O)c1c(O)ccc2c1c1cc3ccccc3c(O)c1n2CCc1ccc(OC)c(OC)c1,–,> 100 µM
Nc1ccccc1C(=O)N=Nc1c(O)[nH]c2ccccc12,–,> 100 µM
COc1ccc2nc3cc(Cl)ccc3c(NCCCN3CCN(CCCNc4ccc5nnn6c7ccccc7c(=O)c4c56)CC3)c2c1,–,> 25 µM
Cn1c(=O)c2c(nc(N/N=C/c3ccccc3C(=O)O)n2C)n(C)c1=O,–,> 100 µM

# System: HL-60(TB) leukemia
# Assay: NCI-60 cell line screen, 48 h
SMILES,GI50,TGI
CC(=O)OCC1OC(n2c3c(cc(C#N)c2=S)CCCC3)C(OC(C)=O)C(OC(C)=O)C1OC(C)=O (configuration not stated),48.9 µM and > 100 µM,> 100 µM
N#[N+]c1ccc(Nc2ccccc2)cc1,> 50 µg/mL,> 50 µg/mL
COC(=O)c1c(O)ccc2c1c1cc3ccccc3c(O)c1n2CCc1ccc(OC)c(OC)c1,–,> 100 µM
COc1ccc2nc3cc(Cl)ccc3c(NCCCN3CCN(CCCNc4ccc5nnn6c7ccccc7c(=O)c4c56)CC3)c2c1,–,> 18.7 µM
Cn1c(=O)c2c(nc(N/N=C/c3ccccc3C(=O)O)n2C)n(C)c1=O,–,> 100 µM

# System: MDA-MB-231 breast
# Assay: NCI-60 cell line screen, 48 h
SMILES,TGI,GI50
CC(=O)OCC1OC(n2c3c(cc(C#N)c2=S)CCCC3)C(OC(C)=O)C(OC(C)=O)C1OC(C)=O (configuration not stated),> 100 µM,–
N#[N+]c1ccc(Nc2ccccc2)cc1,> 50 µg/mL,> 50 µg/mL
COC(=O)c1c(O)ccc2c1c1cc3ccccc3c(O)c1n2CCc1ccc(OC)c(OC)c1,> 100 µM,–
Nc1ccccc1C(=O)N=Nc1c(O)[nH]c2ccccc12,> 100 µM,–
COc1ccc2nc3cc(Cl)ccc3c(NCCCN3CCN(CCCNc4ccc5nnn6c7ccccc7c(=O)c4c56)CC3)c2c1,> 18.2 µM,–
Cn1c(=O)c2c(nc(N/N=C/c3ccccc3C(=O)O)n2C)n(C)c1=O,> 100 µM,–

# System: HS 578T breast
# Assay: NCI-60 cell line screen, 48 h
SMILES,GI50,TGI
CC(=O)OCC1OC(n2c3c(cc(C#N)c2=S)CCCC3)C(OC(C)=O)C(OC(C)=O)C1OC(C)=O (configuration not stated),> 100 µM and 25.5 µM,> 100 µM
N#[N+]c1ccc(Nc2ccccc2)cc1,> 50 µg/mL,> 50 µg/mL
COC(=O)c1c(O)ccc2c1c1cc3ccccc3c(O)c1n2CCc1ccc(OC)c(OC)c1,–,> 100 µM
Nc1ccccc1C(=O)N=Nc1c(O)[nH]c2ccccc12,–,73.8 µM
COc1ccc2nc3cc(Cl)ccc3c(NCCCN3CCN(CCCNc4ccc5nnn6c7ccccc7c(=O)c4c56)CC3)c2c1,–,> 25 µM
Cn1c(=O)c2c(nc(N/N=C/c3ccccc3C(=O)O)n2C)n(C)c1=O,–,> 100 µM

# System: SF-268 CNS
# Assay: NCI-60 cell line screen, 48 h
SMILES,GI50,TGI
CC(=O)OCC1OC(n2c3c(cc(C#N)c2=S)CCCC3)C(OC(C)=O)C(OC(C)=O)C1OC(C)=O (configuration not stated),> 100 µM and 22.9 µM,> 100 µM
N#[N+]c1ccc(Nc2ccccc2)cc1,> 50 µg/mL,> 50 µg/mL
COC(=O)c1c(O)ccc2c1c1cc3ccccc3c(O)c1n2CCc1ccc(OC)c(OC)c1,–,> 100 µM
Nc1ccccc1C(=O)N=Nc1c(O)[nH]c2ccccc12,–,> 100 µM
COc1ccc2nc3cc(Cl)ccc3c(NCCCN3CCN(CCCNc4ccc5nnn6c7ccccc7c(=O)c4c56)CC3)c2c1,–,> 25 µM
Cn1c(=O)c2c(nc(N/N=C/c3ccccc3C(=O)O)n2C)n(C)c1=O,–,> 100 µM

# System: UACC-257 melanoma
# Assay: NCI-60 cell line screen, 48 h
SMILES,TGI,GI50
CC(=O)OCC1OC(n2c3c(cc(C#N)c2=S)CCCC3)C(OC(C)=O)C(OC(C)=O)C1OC(C)=O (configuration not stated),> 100 µM,–
N#[N+]c1ccc(Nc2ccccc2)cc1,> 50 µg/mL,> 50 µg/mL
COC(=O)c1c(O)ccc2c1c1cc3ccccc3c(O)c1n2CCc1ccc(OC)c(OC)c1,> 100 µM,–
Nc1ccccc1C(=O)N=Nc1c(O)[nH]c2ccccc12,> 100 µM,–
COc1ccc2nc3cc(Cl)ccc3c(NCCCN3CCN(CCCNc4ccc5nnn6c7ccccc7c(=O)c4c56)CC3)c2c1,> 25 µM,–
Cn1c(=O)c2c(nc(N/N=C/c3ccccc3C(=O)O)n2C)n(C)c1=O,> 100 µM,–

# System: HOP-92 NSCLC
# Assay: NCI-60 cell line screen, 48 h
SMILES,GI50,TGI
CC(=O)OCC1OC(n2c3c(cc(C#N)c2=S)CCCC3)C(OC(C)=O)C(OC(C)=O)C1OC(C)=O (configuration not stated),> 100 µM and 32.4 µM,> 100 µM
COC(=O)c1c(O)ccc2c1c1cc3ccccc3c(O)c1n2CCc1ccc(OC)c(OC)c1,–,> 100 µM
COc1ccc2nc3cc(Cl)ccc3c(NCCCN3CCN(CCCNc4ccc5nnn6c7ccccc7c(=O)c4c56)CC3)c2c1,–,> 25 µM
Cn1c(=O)c2c(nc(N/N=C/c3ccccc3C(=O)O)n2C)n(C)c1=O,–,> 100 µM

# System: NCI-H23 lung
# Assay: NCI-60 cell line screen, 48 h
SMILES,TGI,GI50
CC(=O)OCC1OC(n2c3c(cc(C#N)c2=S)CCCC3)C(OC(C)=O)C(OC(C)=O)C1OC(C)=O (configuration not stated),> 100 µM,–
N#[N+]c1ccc(Nc2ccccc2)cc1,> 50 µg/mL,> 50 µg/mL
COC(=O)c1c(O)ccc2c1c1cc3ccccc3c(O)c1n2CCc1ccc(OC)c(OC)c1,> 100 µM,–
Nc1ccccc1C(=O)N=Nc1c(O)[nH]c2ccccc12,> 100 µM,–
COc1ccc2nc3cc(Cl)ccc3c(NCCCN3CCN(CCCNc4ccc5nnn6c7ccccc7c(=O)c4c56)CC3)c2c1,> 25 µM,–
Cn1c(=O)c2c(nc(N/N=C/c3ccccc3C(=O)O)n2C)n(C)c1=O,> 100 µM,–

# System: UACC-62 melanoma
# Assay: NCI-60 cell line screen, 48 h
SMILES,GI50,TGI
CC(=O)OCC1OC(n2c3c(cc(C#N)c2=S)CCCC3)C(OC(C)=O)C(OC(C)=O)C1OC(C)=O (configuration not stated),> 100 µM and 26.5 µM,> 100 µM
N#[N+]c1ccc(Nc2ccccc2)cc1,> 50 µg/mL,> 50 µg/mL
COC(=O)c1c(O)ccc2c1c1cc3ccccc3c(O)c1n2CCc1ccc(OC)c(OC)c1,–,> 100 µM
Nc1ccccc1C(=O)N=Nc1c(O)[nH]c2ccccc12,–,> 100 µM
COc1ccc2nc3cc(Cl)ccc3c(NCCCN3CCN(CCCNc4ccc5nnn6c7ccccc7c(=O)c4c56)CC3)c2c1,–,> 25 µM
Cn1c(=O)c2c(nc(N/N=C/c3ccccc3C(=O)O)n2C)n(C)c1=O,–,> 100 µM

# System: COLO 205 colon
# Assay: NCI-60 cell line screen, 48 h
row,SMILES,TGI
1,CC(=O)OCC1OC(n2c3c(cc(C#N)c2=S)CCCC3)C(OC(C)=O)C(OC(C)=O)C1OC(C)=O (configuration not stated),> 100 µM

# From PubChem BioAssay (NCI)
